Assay results taken from the NIST ThermoML archive (doi:10.1016/j.jct.2015.12.029).
± gives the expanded uncertainty stated by the source.

Experiment: mn = molality of the nth substance listed, in mol/kg
Details: 100 kPa, Liquid; for molar conductivity: Alternating current cell with electrodes; for mass density: Vibrating tube method, m1 = 0.009007

CCCCn1cc[n+](C)c1.F[B-](F)(F)F [1-butyl-3-methylimidazolium tetrafluoroborate] + CCCCO
molar conductivity [S·m2/mol]
Details | 283.15 K | 288.15 K | 293.15 K | 298.15 K | 303.15 K | 308.15 K | 313.15 K | 318.15 K
m1 = 7.252e-05 | 0.00118 ± 1.2e-05 | 0.00135 ± 1.4e-05 | 0.00154 ± 1.6e-05 | 0.00177 ± 1.8e-05 | 0.00199 ± 2e-05 | 0.00224 ± 2.3e-05 | 0.0025 ± 2.6e-05 | 0.00278 ± 2.8e-05
m1 = 0.0001049 | 0.00114 ± 1.2e-05 | 0.0013 ± 1.3e-05 | 0.00148 ± 1.5e-05 | 0.00169 ± 1.7e-05 | 0.00191 ± 2e-05 | 0.00214 ± 2.2e-05 | 0.00238 ± 2.5e-05 | 0.00264 ± 2.7e-05
m1 = 0.0001948 | 0.00103 ± 1.1e-05 | 0.00118 ± 1.3e-05 | 0.00135 ± 1.4e-05 | 0.00154 ± 1.6e-05 | 0.00173 ± 1.9e-05 | 0.00193 ± 2.1e-05 | 0.00214 ± 2.3e-05 | 0.00237 ± 2.6e-05
m1 = 0.0002951 | 0.000958 ± 1e-05 | 0.00109 ± 1.2e-05 | 0.00125 ± 1.4e-05 | 0.00142 ± 1.5e-05 | 0.00158 ± 1.7e-05 | 0.00177 ± 1.9e-05 | 0.00197 ± 2.2e-05 | 0.00217 ± 2.4e-05
m1 = 0.0004065 | 0.000896 ± 1e-05 | 0.00102 ± 1.1e-05 | 0.00116 ± 1.3e-05 | 0.00132 ± 1.5e-05 | 0.00147 ± 1.6e-05 | 0.00164 ± 1.8e-05 | 0.00182 ± 2e-05 | 0.00201 ± 2.2e-05
m1 = 0.000564 | 0.000826 ± 9e-06 | 0.000939 ± 1.1e-05 | 0.00107 ± 1.2e-05 | 0.00121 ± 1.4e-05 | 0.00135 ± 1.5e-05 | 0.00151 ± 1.7e-05 | 0.00168 ± 1.9e-05 | 0.00184 ± 2.1e-05
m1 = 0.000759 | 0.000763 ± 9e-06 | 0.000869 ± 1e-05 | 0.000986 ± 1.1e-05 | 0.00112 ± 1.3e-05 | 0.00125 ± 1.4e-05 | 0.00139 ± 1.6e-05 | 0.00154 ± 1.8e-05 | 0.00169 ± 2e-05
m1 = 0.0009843 | 0.000711 ± 8e-06 | 0.000808 ± 9e-06 | 0.000917 ± 1e-05 | 0.00104 ± 1.2e-05 | 0.00116 ± 1.3e-05 | 0.00129 ± 1.5e-05 | 0.00143 ± 1.6e-05 | 0.00156 ± 1.8e-05
m1 = 0.001432 | 0.000635 ± 8e-06 | 0.000719 ± 9e-06 | 0.000816 ± 1e-05 | 0.000925 ± 1.1e-05 | 0.00103 ± 1.2e-05 | 0.00114 ± 1.4e-05 | 0.00126 ± 1.5e-05 | 0.00138 ± 1.7e-05
m1 = 0.001963 | 0.000573 ± 7e-06 | 0.000648 ± 8e-06 | 0.000736 ± 9e-06 | 0.000834 ± 1e-05 | 0.00093 ± 1.1e-05 | 0.00103 ± 1.2e-05 | 0.00114 ± 1.3e-05 | 0.00125 ± 1.5e-05
m1 = 0.003008 | 0.000498 ± 7e-06 | 0.000562 ± 7e-06 | 0.000639 ± 8e-06 | 0.00072 ± 1e-05 | 0.000807 ± 1.1e-05 | 0.000896 ± 1.2e-05 | 0.00099 ± 1.3e-05 | 0.00108 ± 1.5e-05

Details | mass density [kg/m3]
283.15 K | 817.699 ± 0.22
288.15 K | 813.937 ± 0.22
293.15 K | 810.147 ± 0.22
298.15 K | 806.337 ± 0.22
303.15 K | 802.5 ± 0.22
308.15 K | 798.633 ± 0.23
313.15 K | 794.73 ± 0.23
318.15 K | 790.785 ± 0.23
